In article PMC5882164, “A novel calcimimetic agent, evocalcet (MT-4580/KHK7580), suppresses the parathyroid cell function with little effect on the gastrointestinal tract or CYP isozymes in vivo and in vitro” (PLoS ONE, 2018):
Where “and” joins values, the source holds several entries; their conditions need not be identical. Equal values may be shown once. Where a name gives a salt, the structure may show the parent alone.

Tests used:
serum PTH [1] = assay: Serum PTH reduction in common marmosets; type: in vivo, common marmoset; set-up: Serum PTH levels: unit not given here
Procedure: The study of effect of evocalcet on emesis in common marmoset was performed by referencing a previously reported method. The marmosets (n = 24) used for this study were housed in cages (460 × 600 × 655 mm) with environmental enrichments (wooden perches, swing, and balls) and acclimated for at least 4 weeks. The marmosets were fasted from evening on the day before administration. […] The serum PTH level was measured using a Porcine Intact PTH ELISA kit (Immutopics, Inc., San Clemente, CA, USA). To evaluate the emetic effects in marmosets, evocalcet (50 or 150 μg/kg) or cinacalcet (1500 or 5000 μg/kg) was orally administered (n = 6/drug, dose down titration, n = 12 in total). The observation of emesis was conducted until 4 h after the administration.

gastric emptying = assay: Evaluation of gastric emptying in rats (phenol red); type: in vivo, rat
Procedure: The study of gastric emptying in rats was performed by referencing a previously reported method. […] The rats were divided into eight body-weight-matched groups (n = 8/group). […] Ten minutes later, 0.05 w/v% phenol red, a non-absorbable marker solution (1.5 mL/body), was orally administered. Thirty minutes after the administration of phenol red, the rats were euthanized by cervical dislocation, and the gastric body clamped at the cardiac and pyloric part of the stomach was obtained. The stomach was homogenized by adding 0.1 M NaOH and centrifugated. The supernatant was mixed with 20 w/v% trichloroacetic acid. After centrifugation, the supernatant was mixed with the same volume of 0.5 mol/L NaOH, and the absorbance was measured at 560 nm. The gastric emptying rate was calculated by the following formula: […]=[1-(opticaldensity[[…])]×100

serum calcium = assay: Normal rat study: serum calcium level after oral administration; type: in vivo; set-up: Serum Ca: unit not given here; conditions: normal rats
Procedure: (§1) After acclimatization, rats were divided into nine groups (n = 10/group) matched in terms of body weight, and their serum PTH and calcium levels. Vehicle, 0.5% (w/v) methyl cellulose (Wako Pure Chemical Industries, Ltd.) solution orally administered to vehicle treatment group rats. Evocalcet (0.03, 0.1, 0.3, or 1 mg/kg), or cinacalcet (1, 3, 10, or 30 mg/kg) were suspended in the vehicle solution and orally administered to each drug treatment group. Blood samples were collected from the tail vein before and at 0.5, 2, 4, 6, 8, and 24 h after the oral administration.
(§2) The serum PTH level was measured using a Rat Intact PTH ELISA kit (Immutopics, Inc., San Clemente, CA). The serum calcium, phosphate and BUN levels were measured using an auto analyzer (Hitachi High-Technologies Corporation., Tokyo, Japan) or the following test kits: the Calcium E-test WAKO, the Phospha C-test WAKO, or the Blood Urea nitrogen B-test WAKO (Wako Pure Chemical Industries, Ltd., Osaka, Japan).

serum PTH [2] = assay: Normal rat study: serum PTH level after oral administration; type: in vivo; conditions: normal rats
Procedure: as §1, §2

[3] = cinacalcet 1 mg/kg oral, 0 h, group mean of 10 rats
[4] = cinacalcet 1 mg/kg oral, 0 h, individual rat
[5] = cinacalcet 1 mg/kg oral, 0.5 h, group mean of 10 rats
[6] = cinacalcet 1 mg/kg oral, 0.5 h, individual rat
[7] = cinacalcet 1 mg/kg oral, 2 h, group mean of 10 rats
[8] = cinacalcet 1 mg/kg oral, 2 h, individual rat
[9] = cinacalcet 1 mg/kg oral, 4 h, group mean of 10 rats
[10] = cinacalcet 1 mg/kg oral, 4 h, individual rat
[11] = cinacalcet 1 mg/kg oral, 6 h, group mean of 10 rats
[12] = cinacalcet 1 mg/kg oral, 6 h, individual rat
[13] = cinacalcet 1 mg/kg oral, 8 h, group mean of 10 rats
[14] = cinacalcet 1 mg/kg oral, 8 h, individual rat
[15] = cinacalcet 1 mg/kg oral, 24 h, group mean of 10 rats
[16] = cinacalcet 1 mg/kg oral, 24 h, individual rat
[17] = cinacalcet 3 mg/kg oral, 0 h, group mean of 10 rats
[18] = cinacalcet 3 mg/kg oral, 0 h, individual rat
[19] = cinacalcet 3 mg/kg oral, 0.5 h, individual rat
[20] = cinacalcet 3 mg/kg oral, 2 h, individual rat
[21] = cinacalcet 3 mg/kg oral, 4 h, individual rat
[22] = cinacalcet 3 mg/kg oral, 6 h, individual rat
[23] = cinacalcet 3 mg/kg oral, 8 h, individual rat
[24] = cinacalcet 3 mg/kg oral, 24 h, individual rat
[25] = single oral dose, vs vehicle group

In the case of `C[C@@H](NCCCc1cccc(C(F)(F)F)c1)c1cccc2ccccc12` [cinacalcet, Cinacalcet hydrochloride, reference compound], the “Serum PTH levels” value (serum PTH [1]; 300 μg/kg, 1 h, individual animals) is reported as 206.7 and 42.9 and 113.4, the “Serum PTH levels” value (serum PTH [1]; 300 μg/kg, 1 h, mean) is reported as 121.0 and the “Serum PTH levels” value (serum PTH [1]; 300 μg/kg, 4 h, individual animals) is reported as 384.2 and 103.1 and 100.2. For the same molecule, the “Serum PTH levels” value (serum PTH [1]; 300 μg/kg, 4 h, mean) was 195.8, the “Serum PTH levels” value (serum PTH [1]; 300 μg/kg, before administration, individual animals) was 327.6 and 84.8 and 116.8 and the “Serum PTH levels” value (serum PTH [1]; 300 μg/kg, before administration, mean) was 176.4. The “Serum PTH levels” value (serum PTH [1]; 500 μg/kg, 1 h, individual animals) was 66.0 and 160.9 and 28.9, the “Serum PTH levels” value (serum PTH [1]; 500 μg/kg, 1 h, mean) was 85.3 and the “Serum PTH levels” value (serum PTH [1]; 500 μg/kg, 4 h, individual animals) was 370.0 and 348.3 and 172.2. The “Serum PTH levels” value (serum PTH [1]; 500 μg/kg, 4 h, mean) was 296.8, the “Serum PTH levels” value (serum PTH [1]; 500 μg/kg, before administration, individual animals) was 370.0 and 298.9 and 61.2 and the “Serum PTH levels” value (serum PTH [1]; 500 μg/kg, before administration, mean) was 243.4. For the same molecule, the “Minimum effective dose on PTH reduction” value (serum PTH [1]; oral) was 0.5 mg/kg, the “Gastric Emptying” value (gastric emptying; 100 mg/kg, group mean) was 20.02% and the “Gastric Emptying” value (gastric emptying; 100 mg/kg, individual rats) was 7.17% and 20.46% and 31.67% and 44.76% and 1.77% and 30.22% and 22.74% and 1.35%. For the same molecule, the “Gastric Emptying” value (gastric emptying; cinacalcet 10 mg/kg oral, 30 minutes, group mean, n = 8) was 55.17%, the “Gastric Emptying” value (gastric emptying; cinacalcet 10 mg/kg oral, 30 minutes, individual rats) was 44.96% and 61.79% and 57.42% and 52.23% and 44.34% and 52.86% and 67.60% and 60.12% and the “Gastric Emptying” value (gastric emptying; cinacalcet 30 mg/kg oral, 30 minutes, group mean, n = 8) was 35.72%. For the same molecule, the “Gastric Emptying” value (gastric emptying; cinacalcet 30 mg/kg oral, 30 minutes, individual rats) was 28.35% and 14.64% and 23.99% and 37.69% and 38.94% and 32.71% and 40.60% and 68.85%, the “Dose inhibiting gastric emptying relative to the dose required for a significant PTH reduction” value (gastric emptying; oral) was “approximately 30 fold” and the “Doses that caused a significant delay in gastric emptying” value (gastric emptying; oral, vs vehicle group) was at least 30 mg/kg. The “Serum Ca” value (serum calcium; [3]) was 11.5, the “Serum Ca” value (serum calcium; [4]) was 14.6 and 10.4 and 11.2 and 10.8 and 12.0 and 11.0 and 11.4 and the “Serum Ca” value (serum calcium; [5]) was 10.5. The “Serum Ca” value (serum calcium; [6]) was 10.4 and 10.8 and 10.0 and 10.6 and 10.2, the “Serum Ca” value (serum calcium; [7]) was 10.3 and the “Serum Ca” value (serum calcium; [8]) was 10.4 and 10.2 and 10.0 and 10.6. The “Serum Ca” value (serum calcium; [9]) was 9.9, the “Serum Ca” value (serum calcium; [10]) was 8.0 and 10.2 and 9.8 and 10.4 and 10.0 and the “Serum Ca” value (serum calcium; [11]) was 10.0. The “Serum Ca” value (serum calcium; [12]) was 9.6 and 9.4 and 10.0 and 10.4 and 10.2, the “Serum Ca” value (serum calcium; [13]) was 10.1 and the “Serum Ca” value (serum calcium; [14]) was 10.0 and 10.4 and 10.2 and 9.8. For the same molecule, the “Serum Ca” value (serum calcium; [15]) was 12.1, the “Serum Ca” value (serum calcium; [16]) was 12.2 and 11.8 and 11.2 and 12.6 and 11.4 and 13.0 and 11.0 and 12.4 and the “Serum Ca” value (serum calcium; [17]) was 11.1. For the same molecule, the “Serum Ca” value (serum calcium; [18]) was 11.2 and 9.4 and 11.4, the “Serum Ca” value (serum calcium; cinacalcet 3 mg/kg oral, 0.5 h, group mean of 10 rats) was 10.6 and the “Serum Ca” value (serum calcium; [19]) was 10.8 and 10.6 and 11.2 and 10.2. For the same molecule, the “Serum Ca” value (serum calcium; cinacalcet 3 mg/kg oral, 2 h, group mean of 10 rats) was 9.8, the “Serum Ca” value (serum calcium; [20]) was 9.8 and 8.6 and 10.0 and the “Serum Ca” value (serum calcium; cinacalcet 3 mg/kg oral, 4 h, group mean of 10 rats) was 9.3. The “Serum Ca” value (serum calcium; [21]) was 9.2 and 8.8 and 9.4, the “Serum Ca” value (serum calcium; cinacalcet 3 mg/kg oral, 6 h, group mean of 10 rats) was 9.3 and the “Serum Ca” value (serum calcium; [22]) was 9.4 and 8.8 and 9.6. The “Serum Ca” value (serum calcium; cinacalcet 3 mg/kg oral, 8 h, group mean of 10 rats) was 9.7, the “Serum Ca” value (serum calcium; [23]) was 9.6 and 9.2 and 9.8 and the “Serum Ca” value (serum calcium; cinacalcet 3 mg/kg oral, 24 h, group mean of 10 rats) was 12.1. The “Serum Ca” value (serum calcium; [24]) was 12.0 and 11.2 and 11.6, the “Serum Ca” value (serum calcium; cinacalcet 10 mg/kg oral, 0 h, individual rat) was 9.6 and 11.4 and 10.6 and 11.2 and the “Serum Ca” value (serum calcium; cinacalcet 10 mg/kg oral, 0.5 h, individual rat) was 10.0 and 10.2 and 10.8 and 9.8. The “Serum Ca” value (serum calcium; cinacalcet 10 mg/kg oral, 2 h, individual rat) was 8.6 and 9.6 and 9.4 and 9.2, the “Serum Ca” value (serum calcium; cinacalcet 10 mg/kg oral, 4 h, individual rat) was 8.2 and 9.2 and 8.8 and the “Serum Ca” value (serum calcium; cinacalcet 10 mg/kg oral, 6 h, individual rat) was 8.0 and 8.8 and 8.6. For the same molecule, the “Serum Ca” value (serum calcium; cinacalcet 10 mg/kg oral, 8 h, individual rat) was 8.6 and 10.4 and 8.4 and 8.8, the “Serum Ca” value (serum calcium; cinacalcet 10 mg/kg oral, 24 h, individual rat) was 11.4 and 11.6 and 11.0 and 10.2 and the “Doses that significantly reduced the serum calcium level” value (serum calcium; [25]) was at least 1 mg/kg. The “Serum PTH” value (serum PTH [2]; [3]) was 109.720, the “Serum PTH” value (serum PTH [2]; [4]) was 125.722 and 130.447 and 67.586 and 199.824 and 100.664 and 97.298 and 150.924 and 89.996 and 55.272 and 79.471 and the “Serum PTH” value (serum PTH [2]; [5]) was 80.824. The “Serum PTH” value (serum PTH [2]; [6]) was 82.661 and 77.184 and 76.842 and 101.034 and 110.106 and 55.958 and 55.844 and 88.538 and 77.412, the “Serum PTH” value (serum PTH [2]; [7]) was 79.608 and the “Serum PTH” value (serum PTH [2]; [8]) was 48.013 and 15.500 and 63.091 and 101.472 and 98.442 and 56.814 and 145.553 and 109.841 and 112.583 and 44.766. For the same molecule, the “Serum PTH” value (serum PTH [2]; [9]) was 140.908, the “Serum PTH” value (serum PTH [2]; [10]) was 61.596 and 118.199 and 215.679 and 200.323 and 159.521 and 92.828 and 169.313 and 166.494 and 115.974 and 109.149 and the “Serum PTH” value (serum PTH [2]; [11]) was 165.420. For the same molecule, the “Serum PTH” value (serum PTH [2]; [12]) was 193.418 and 170.704 and 168.342 and 210.841 and 173.065 and 135.125 and 169.319 and 98.407 and 166.633, the “Serum PTH” value (serum PTH [2]; [13]) was 216.453 and the “Serum PTH” value (serum PTH [2]; [14]) was 174.106 and 258.920 and 229.591 and 209.695 and 192.029 and 200.519 and 209.009 and 246.914 and 151.294 and 292.451. The “Serum PTH” value (serum PTH [2]; [15]) was 137.047, the “Serum PTH” value (serum PTH [2]; [16]) was 113.627 and 116.500 and 103.304 and 199.622 and 108.780 and 152.854 and 112.730 and 224.397 and 139.120 and 99.534 and the “Serum PTH” value (serum PTH [2]; [17]) was 102.683. The “Serum PTH” value (serum PTH [2]; [18]) was 56.632 and 140.686 and 84.483 and 109.613, the “Serum PTH” value (serum PTH [2]; [19]) was 15.500 and 54.018 and the “Serum PTH” value (serum PTH [2]; [20]) was 42.818 and 15.500 and 32.934. The “Serum PTH” value (serum PTH [2]; [21]) was 141.716 and 112.265 and 135.633 and 62.560, the “Serum PTH” value (serum PTH [2]; [22]) was 155.316 and 207.503 and 133.171 and the “Serum PTH” value (serum PTH [2]; [23]) was 158.155 and 206.865 and 189.885 and 126.682. For the same molecule, the “Serum PTH” value (serum PTH [2]; [24]) was 109.678 and 94.507 and 141.634 and 226.462 and the “Doses that significantly reduced the serum PTH level” value (serum PTH [2]; [25]) was at least 1 mg/kg.
